Data published in ChEMBL document CHEMBL1136107, “Improvement of therapeutic index of phosphodiesterase type IV inhibitors as anti-Asthmatics” (Bioorg Med Chem Lett, 2003).
Activity calls are given as the source filed them.

Key:
Cavia porcellus [1] = assay: Inhibition of bronchoconstriction in passively-sensitized guinea pig at 1 mg/kg iv dose 10 min prior to challenge; format: functional; conditions: Lung
Cavia porcellus [2] = assay: Eosinophil infiltration in passively-sensitized guinea pig at 30 mg/kg peroral dose 90 min prior to challenge; format: functional; conditions: route oral
Mustela putorius furo = assay: Emetic effect in ferrets after peroral administration at 0.03 mg/kg (2/5); format: functional, organism-based; set-up: dose 0.03 mg/kg

Row | Compound | inhibition in vivo at 1 mg/kg (Cavia porcellus [1]) | inhibition in vivo at 30 mg/kg (Cavia porcellus [2]) | Emesis (Mustela putorius furo)
1 | COc1ccc(/C=N/NC(N)=O)cc1OC1CCCC1 | 90.3% | 63% | –
2 | COc1ccc(C2CNC(=O)C2)cc1OC1CCCC1 (stereo not given) [ROLIPRAM] | 95.4% | 62% | Partially active
